Measured values as given in US20030216571A1, “Tricyclic compounds” (priority 1999, published 2003).

Assays:
Leukotriene D4 receptor = target: T1, Leukotriene D4 receptor (Cavia porcellus, UniProt Q2NNR5); test: Leukotriene D4 receptor binding test; details: binding inhibition constant (Ki) vs [3H] LTD4 0.2 nM, lung cell membrane fraction from guinea pigs, 25° C. for 30 minutes; for Ki: read-out: pKi value (converted)
T1 construct: As a receptor sample, a lung cell membrane fraction from guinea pigs was used; from tissue; host or cells: lung membrane fraction of Hartley male guinea pigs
T1 sequence (Q2NNR5 1-340): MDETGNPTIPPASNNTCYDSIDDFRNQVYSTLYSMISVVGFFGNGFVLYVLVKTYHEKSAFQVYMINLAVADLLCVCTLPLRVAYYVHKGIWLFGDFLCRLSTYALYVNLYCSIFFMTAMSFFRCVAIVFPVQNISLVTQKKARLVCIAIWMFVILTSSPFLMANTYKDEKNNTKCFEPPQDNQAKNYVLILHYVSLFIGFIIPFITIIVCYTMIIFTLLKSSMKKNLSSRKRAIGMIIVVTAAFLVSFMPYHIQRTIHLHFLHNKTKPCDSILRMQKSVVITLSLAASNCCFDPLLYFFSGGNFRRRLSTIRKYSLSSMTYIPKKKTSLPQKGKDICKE
Method: Leukotriene D4 Receptor Binding Test
As a receptor sample, a lung cell membrane fraction from guinea pigs was used. Preparation of the membrane fraction was carried out according to the method of Ahn et al. (Eur. J. Pharmacol., 127, 153-155 (1986)). Lungs of Hartley male guinea pigs (400 to 500 g body weight, Nippon SLC Co.) were extracted, and perfused with a physiological saline, and then, adding 10 mM of PIPES, 10 mM of MgCl2 and 10 mM of CaCl2 buffer (pH 7.5) to the lung tissue and the mixture was homogenized. This homogenate was centrifuged at 70,000 xg for 10 minutes to obtain a membrane fraction.
Leukotriene D4 (LTD4) recepter binding test was carried out according to the method of Aharony, et al. (J. Pharmacol. Expl.Ther., 243, 921-926 (1987)). To 0.42 mg of the receptor sample were added 10 mM of PIPES, 10 mM of MgCl2 and 10 mM of CaCl2 buffer (pH 7.5) to make the total amount of 480 μl, and 10 μl of [^3H] LTD4 (NEN Life Science Products Co.) and 10 μl of a Test compound in dimethylsulfoxide were added to the mixture, and the resulting mixture was incubated at 25° C. for 30 minutes. The mixtures thus incubated were filtered through a glass fiber filter (Whatman Co., GF/C) using cell harvester (Brandel Co., M-30R). The filter were washed with 10 mM of Tris. and 100 mM of NaCl buffer (pH 7.5), and 5 ml of a liquid scintillator (NACALAI TESQUE INC., clearsol I), and radioactivity was measured by a liquid scintillation analyzer (Packard Co., 2000CA). When a dissociation constant (Kd) of LTD4 was to be obtained, [^3H] LTD4 with 0.03 to 0.5 nM was used, and 1 μM of non-radioactive LTD4 was added. When a binding inhibition constant (Ki) of the Test compound is to be meaured, [^3H] LTD4 with 0.2 nM was used. Kd and Ki are calculated according to the method of Bennett et al. (Neurotransmitter Receptor Binding, 2nd ed., edited by H. I. Yamamura et al., pp. 61-89, Raven Press (1985)).

[1] = tested on: Leukotriene D4 induced respiratory constriction; test: Leukotriene D4 induced respiratory constriction test; assay type: in vivo; details: p.o. 1 hr before i.v. LTD4; anesthetized Hartley male guinea pigs; respiratory inner pressure
Method: Leukotriene D4 Induced Respiratory Constriction Test
Respiratory constriction was measured by modifying the method of Konzett and Rossler (Arch. Exp. Pathol. Pharmakol., 195, pp. 71-74 (1940)). Hartley male guinea pigs (400 to 500 g body weight, Nippon SLC Co.) were anesthetized with pentobarbital (50 mg/kg, s.c.), and a cannula was inserted into the trachea to carry out artificial ventilation with an artificial ventilator (manufactured by Harvard Co., Model 683). An inner pressure of the respiratory tract was measured by a differential pressure transducer (Nihon Koden, TP-603T) connected to the respiratory cannula and it is used as an index of respiratory constriction.
LTD4 (0.03, 0.06, 0.13, 0.25, 0.5, 1 and 2 μg/kg, Sigma Co.) was intravenously administered from a cannula inserted into the right jugular vein from a low dose with an interval of 5 minutes to cause a respiratory constriction reaction and an increased amount of a respiratory inner pressure was measured. Test compound was suspended in 0.5% sodium carboxymethyl cellulose aqueous solution, and orally administered 1 hour before administration of LTD4. Animals were fasted for 24 hours before administration of the Test compound.
A2=(Dose of Compound administered)/{(ED50 of group to which Compound was added)/(ED50 of control group)−1}

Molecule	Ki (Leukotriene D4 receptor)	A2 (dose of Test compound required for shifting two-times the LTD4 dose-reaction curve of control group to higher dose side) [1]	melting point	pKi value (Leukotriene D4 receptor)
O=C(O)CCSC1c2ccccc2COc2ccc(OCc3ccc4cc(F)c(Cl)cc4n3)cc21 (stereo not shown) [Compound A, 11-(2-carboxyethyl)thio-2-(7-chloro-6-fluoro-quinolin-2-yl)methoxy-6,11-dihydrodibenz[b,e]oxepine, reference compound]	0.316 nM	16 µg/kg	–	–
O=C([O-])CCSC1c2ccccc2COc2ccc(/C=C/c3ccc4cc(F)c(Cl)cc4n3)cc21.[Na+] (stereo not shown) [Example 2 (b), Sodium 3-{[2-[(E)-2-(7-chloro-6-fluoro-2-quinolinyl)ethenyl]-6,11-dihydrodibenz[b,e]oxepin-11-yl]thio}propionate]	0.316 nM	1.7 µg/kg	–	–
O=C(O)C(F)(F)F.O=C(O)CC1(CSC2c3cc(/C=C/c4ccc5cc(F)c(F)cc5n4)ccc3OCc3c(F)cccc32)CC1 (stereo not shown) [Example 3, {1-[[2-[(E)-2-(6,7-difluoro-2-quinolinyl)ethenyl]-7-fluoro-6,11-dihydrodibenz[b,e]oxepin-11-yl]thiomethyl]cyclopropyl}acetic acid trifluoroacetic acid salt]	0.158 nM	3.6 µg/kg	174 to 179 °C	–
O=C([O-])CCSC1c2ccccc2COc2ccc(/C=C/c3ccc4cc(F)c(F)cc4n3)cc21.[Na+] (stereo not shown) [Example 5 (b), Sodium 3-{[2-[(E)-2-(6,7-difluoro-2-quinolinyl)ethenyl]-6,11-dihydrodibenz[b,e]oxepin-11-yl]thio}propionate]	0.251 nM	2.6 µg/kg	213 to 216 °C	–
O=C([O-])CC1(CSC2c3ccccc3COc3ccc(/C=C/c4ccc5cc(F)c(F)cc5n4)cc32)CC1.[Na+] (stereo not shown) [Example 7 (b), Sodium {1-[[2-[(E)-2-(6,7-difluoro-2-quinolinyl)ethenyl]-6,11-dihydrodibenz[b,e]oxepin-11-yl]thiomethyl]cyclopropyl}acetate]	0.2 nM	3.5 µg/kg	137 to 139 °C	–
O=C(O)CCSC1c2cc(/C=C/c3ccc4cc(F)c(F)cc4n3)ccc2OCc2c(F)cccc21 (stereo not shown) [Example 12, 3-{[2-[(E)-2-(6,7-difluoro-2-quinolinyl)ethenyl]-7-fluoro-6,11-dihydrodibenz[b,e]oxepin-11-yl]thio}propionic acid]	0.158 nM	4.9 µg/kg	224 to 227 °C	–
N#Cc1cccc2c1COc1ccc(/C=C/c3ccc4cc(F)c(F)cc4n3)cc1C2SCCC(=O)[O-].[Na+] (stereo not shown) [Example 13 (b), Sodium 3-{[7-cyano-2-[(E)-2-(6,7-difluoro-2-quinolinyl)ethenyl]-6,11-dihydrodibenz[b,e]oxepin-11-yl]thio}propionate]	0.631 nM	7.8 µg/kg	179 to 182 °C	–
O=C([O-])CCSC1c2cc(/C=C/c3ccc4cc(F)c(F)cc4n3)ccc2OCc2c1cccc2C(F)(F)F.[Na+] (stereo not shown) [Example 14, Sodium 3-{[2-[(E)-2-(6,7-difluoro-2-quinolinyl)ethenyl]-7-trifluoromethyl-6,11-dihydrodibenz[b,e]oxepin-11-yl]thio}propionate]	0.631 nM	4.4 µg/kg	–	–
C#Cc1cccc2c1COc1ccc(/C=C/c3ccc4cc(F)c(F)cc4n3)cc1C2SCCC(=O)[O-].[Na+] (stereo not shown) [Example 15, Sodium 3-{[2-[(E)-2-(6,7-difluoro-2-quinolinyl)ethenyl]-7-ethynyl-6,11-dihydrodibenz[b,e]oxepin-11-yl]thio}propionate]	0.158 nM	0.8 µg/kg	186 to 189 °C	–
C[C@@H](CSC1c2ccccc2COc2ccc(/C=C/c3ccc4ccc(F)cc4n3)cc21)C(=O)[O-].[Na+] (stereo partly drawn) [Example 19, Sodium 3-{[2-[(E)-2-(7-fluoro-2-quinolinyl)ethenyl]-6,11-dihydrodibenz[b,e]oxepin-11-yl]thio}-2-(R)-methylpropionate]	0.2 nM	2.4 µg/kg	195 to 205 °C	–
C[C@@H](CSC1c2ccccc2COc2ccc(/C=C/c3ccc4ccc(Cl)cc4n3)cc21)C(=O)[O-].[Na+] (stereo partly drawn) [Example 23, Sodium 3-{[2-[(E)-2-(7-chloro-2-quinolinyl)ethenyl]-6,11-dihydrodibenz[b,e]oxepin-11-yl]thio}-2-(R)-methylpropionate]	0.501 nM	5.7 µg/kg	207 to 217 °C	–
C[C@@H](CSC1c2ccccc2COc2ccc(/C=C/c3ccc4c(n3)CCCC4)cc21)C(=O)[O-].[Na+] (stereo partly drawn) [Example 26, Sodium 3-{[2-[(E)-2-(5,6,7,8-tetrahydro-2-quinolinyl)ethenyl]-6,11-dihydrodibenz[b,e]oxepin-11-yl]thio}-2-(R)-methylpropionate]	0.316 nM	–	168 to 173 °C	–
CCC(CSC1c2ccccc2COc2ccc(/C=C/c3ccc4cc(F)c(F)cc4n3)cc21)C(=O)[O-].[Na+] (stereo not shown) [Example 45, Sodium 3-{[2-[(E)-2-(6,7-difluoro-2-quinolinyl)ethenyl]-6,11-dihydrodibenz[b,e]oxepin-11-yl]thio}-2-ethylpropionate]	0.158 nM	–	209 to 218 °C	–
O=C([O-])CCCC1c2ccccc2COc2ccc(/C=C/c3ccc4cc(F)c(F)cc4n3)cc21.[Na+] (stereo not shown) [Example 51 (c), Sodium 4-[2-[(E)-2-(6,7-difluoro-2-quinolinyl)ethenyl]-6,11-dihydrodibenz[b,e]oxepin-11-yl]butanoate]	0.158 nM	3.6 µg/kg	–	–
CC(C)(CC(=O)O)SC1c2ccccc2COc2ccc(/C=C/c3ccc4cc(F)c(F)cc4n3)cc21 (stereo not shown) [Example 58, 3-{[2-[(E)-2-(6,7-difluoro-2-quinolinyl)ethenyl]-6,11-dihydrodibenz[b,e]oxepin-11-yl]thio}-3-methylbutanoic acid]	0.501 nM	6.4 µg/kg	–	–
Sodium [2-[(E)-2-(6,7-difluoro-2-quinolinyl)ethenyl]-6,11-dihydrodibenz[b,e]oxepin-11-yl]thioacetate [Example 4]	–	3.7 µg/kg	–	9.8
